# According to ChEMBL document CHEMBL1201862, “PubChem BioAssay data set” (2004):
# Structures can show the parent of a compound that is named as a salt. Calls of active or inactive are those of the source.
# Key:
# [1] = target: T1, Carboxy-terminal domain RNA polymerase II polypeptide A small phosphatase 1 (Homo sapiens, UniProt Q9GZU7); assay: CTDSP1 inhibitors, concentration-response, biochemical, absorbance readout, ultra-high-throughput screen actives (AID 540297); format: functional
# T1 sequence (Q9GZU7 whole entry): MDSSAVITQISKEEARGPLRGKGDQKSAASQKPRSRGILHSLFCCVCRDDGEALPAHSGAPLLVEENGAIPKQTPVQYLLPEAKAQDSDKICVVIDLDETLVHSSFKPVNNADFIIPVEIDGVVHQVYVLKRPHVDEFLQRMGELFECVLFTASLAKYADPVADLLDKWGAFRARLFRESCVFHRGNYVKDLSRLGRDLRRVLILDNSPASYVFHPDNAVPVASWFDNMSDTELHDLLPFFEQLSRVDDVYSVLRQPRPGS
# [2] = viability of uninfected HEp-2 cells – cell-based, HTS, cytotoxicity control for RSV inhibitor project, dose response (AID 2410); format: functional; details: human respiratory syncytial virus
# [3] = target: Eukaryotic translation initiation factor 4E (Mus musculus, UniProt P63073); assay: blockers of eIF4G binding by eIF4E – biochemical, TR-FRET, dose response (AID 855); format: functional;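 also: potency for disrupting eIF4E binding to eIF4GI seen as loss of FRET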
# Eukaryotic translation initiation factor 4E, sequence (P63073 whole entry, the tested form may be a part): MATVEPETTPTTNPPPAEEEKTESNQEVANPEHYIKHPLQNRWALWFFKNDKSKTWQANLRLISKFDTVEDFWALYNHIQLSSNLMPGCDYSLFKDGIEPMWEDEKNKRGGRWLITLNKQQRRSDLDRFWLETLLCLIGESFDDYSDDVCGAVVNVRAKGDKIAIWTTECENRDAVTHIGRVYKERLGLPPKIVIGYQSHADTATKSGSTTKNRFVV
# [4] = target: T2, RNA-binding protein pos-1 (Caenorhabditis elegans, UniProt G5EF15); assay: disruptors of C. elegans POS-1 RNA interaction – biochemical, fluorescence polarization, dose response (AID 1964);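 also: purified POS-1 fused to maltose binding protein made in E. coli; potency of compounds blocking POS-1 binding to fluorescent RNA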
# T2 sequence (G5EF15 whole entry): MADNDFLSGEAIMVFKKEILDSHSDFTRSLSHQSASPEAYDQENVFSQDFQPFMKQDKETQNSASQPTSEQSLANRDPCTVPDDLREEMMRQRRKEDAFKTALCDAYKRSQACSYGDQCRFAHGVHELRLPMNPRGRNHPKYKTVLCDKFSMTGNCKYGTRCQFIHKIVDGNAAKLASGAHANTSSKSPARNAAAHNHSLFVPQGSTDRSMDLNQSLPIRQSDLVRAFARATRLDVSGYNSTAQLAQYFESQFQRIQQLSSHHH
# Vero = assay: cells; format: functional; details: Chlorocebus sabaeus
# [5] = target: T3, Zinc finger protein mex-5 (Caenorhabditis elegans, UniProt Q9XUB2); assay: potency of MEX-5 RNA-binding blockers – biochemical, C. elegans, fluorescence polarization, dose response (AID 1960)
# T3 sequence (Q9XUB2 whole entry): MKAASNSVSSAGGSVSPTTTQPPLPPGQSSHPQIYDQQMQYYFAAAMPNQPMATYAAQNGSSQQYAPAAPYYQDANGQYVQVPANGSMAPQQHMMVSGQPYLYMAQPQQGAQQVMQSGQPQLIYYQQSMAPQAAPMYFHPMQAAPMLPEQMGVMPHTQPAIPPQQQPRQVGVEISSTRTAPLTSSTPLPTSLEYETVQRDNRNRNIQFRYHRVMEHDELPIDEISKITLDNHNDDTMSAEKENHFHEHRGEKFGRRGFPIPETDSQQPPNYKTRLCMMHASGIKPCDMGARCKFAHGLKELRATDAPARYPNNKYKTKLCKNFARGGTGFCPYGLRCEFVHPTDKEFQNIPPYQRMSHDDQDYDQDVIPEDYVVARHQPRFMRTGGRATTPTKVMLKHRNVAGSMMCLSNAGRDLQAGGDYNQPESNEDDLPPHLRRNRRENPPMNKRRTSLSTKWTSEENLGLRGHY
# [6] = HPDE-C7 pancreatic duct cell viability loss – fluorescence, HTS (AID 430); format: functional, cell-based; details: Homo sapiens
# [7] = viability loss of HPDE-C7K cells – cell-based, fluorescence, HTS, primary screen (AID 431); format: functional; details: Homo sapiens
# [8] = viability of HCT116 lacking mutant beta-catenin – cell-based, human colon tumor, dose response (AID 1045); format: functional;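 also: HCT116 colon tumor cells with beta catenin knocked out; cells exposed to compound for 60 hours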
# [9] = viability of PTEN-deleted HCT116 cells – cell-based, HCT116 PTEN knockout, dose response (AID 1047); format: functional;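 also: HCT116 colon tumor cells with PTEN knocked out; cells exposed to compound for 60 hours before readout; potency for loss of cell viability measured by luminescence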
# SN12K1 = assay: cells; format: functional; details: Homo sapiens
# P388 = assay: cells; format: functional; details: Mus musculus
# P388/ADR = assay: cells; format: functional; details: Mus musculus
# Cytochrome P450 2D6 = Cytochrome P450 2D6 (Homo sapiens, UniProt P10635);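 also: CYP2D6 member of a cytochrome P450 panel assay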
# Cytochrome P450 2D6, sequence (P10635 whole entry): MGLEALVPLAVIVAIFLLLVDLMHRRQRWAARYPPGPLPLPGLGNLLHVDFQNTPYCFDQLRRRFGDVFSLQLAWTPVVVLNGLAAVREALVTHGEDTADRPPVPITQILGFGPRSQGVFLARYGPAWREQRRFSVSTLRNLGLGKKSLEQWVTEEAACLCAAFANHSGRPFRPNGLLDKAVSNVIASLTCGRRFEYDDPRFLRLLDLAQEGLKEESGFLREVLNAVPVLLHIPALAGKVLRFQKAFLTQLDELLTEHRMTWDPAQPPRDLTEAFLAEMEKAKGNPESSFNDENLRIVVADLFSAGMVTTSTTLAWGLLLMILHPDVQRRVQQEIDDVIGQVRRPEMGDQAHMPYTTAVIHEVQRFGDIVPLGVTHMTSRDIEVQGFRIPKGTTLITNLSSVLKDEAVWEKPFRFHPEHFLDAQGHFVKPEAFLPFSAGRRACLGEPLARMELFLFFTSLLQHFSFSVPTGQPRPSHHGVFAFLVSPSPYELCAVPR
# [10] = Luminescence Cell-Based Dose Retest to Confirm Inhibitors of Cancer Stem Cells. [Related pubchem assays (depositor defined):AID2717, AID2721]; format: functional; details: Homo sapiens
# [11] = target: T4, DNA repair protein RAD52 homolog (Homo sapiens, UniProt P43351); format: functional, biochemical
# T4 sequence (P43351 whole entry): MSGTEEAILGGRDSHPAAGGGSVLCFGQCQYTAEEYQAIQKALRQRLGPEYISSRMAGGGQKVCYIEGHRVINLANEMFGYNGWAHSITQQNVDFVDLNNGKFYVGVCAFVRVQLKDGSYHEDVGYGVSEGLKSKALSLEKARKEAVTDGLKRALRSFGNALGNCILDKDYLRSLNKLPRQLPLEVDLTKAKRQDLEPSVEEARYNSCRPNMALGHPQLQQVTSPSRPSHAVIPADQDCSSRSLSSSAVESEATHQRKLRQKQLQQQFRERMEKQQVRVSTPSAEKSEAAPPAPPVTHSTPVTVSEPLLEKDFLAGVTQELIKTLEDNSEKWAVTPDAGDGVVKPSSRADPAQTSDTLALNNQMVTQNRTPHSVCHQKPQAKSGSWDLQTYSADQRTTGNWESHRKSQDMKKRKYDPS
# [12] = NIH3T3 cell viability loss – ATP luminescence, mouse fibroblasts, counter-screen, dose response (AID 2010); format: functional, cell-based;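 also: cells exposed to compound for about 90 hours before reading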
# [13] = Trypanosoma cruzi growth suppression in host cells – NIH3T3 host cells, beta-gal luminescence, confirmation (AID 2044); format: functional, cell-based;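 also: intracellular parasites grown in NIH/3T3 mouse fibroblasts as host cells; luminescent beta-galactosidase reporter signal from transgenic T. cruzi replicating inside host cells; inhibitors lower the luminescence signal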
# [14] = target: T5, Polyadenylate-binding protein 1 (Homo sapiens, UniProt P11940); assay: MLLE binding blockers, Cy5 peptide tracer – biochemical, fluorescence polarization, Cy5-PAM2 peptide, secondary, miRNA deadenylation inhibitor project, dose response (AID 602260); format: functional; details: read-out: IC50_Mean
# T5 sequence (P11940 whole entry, the tested form may be a part): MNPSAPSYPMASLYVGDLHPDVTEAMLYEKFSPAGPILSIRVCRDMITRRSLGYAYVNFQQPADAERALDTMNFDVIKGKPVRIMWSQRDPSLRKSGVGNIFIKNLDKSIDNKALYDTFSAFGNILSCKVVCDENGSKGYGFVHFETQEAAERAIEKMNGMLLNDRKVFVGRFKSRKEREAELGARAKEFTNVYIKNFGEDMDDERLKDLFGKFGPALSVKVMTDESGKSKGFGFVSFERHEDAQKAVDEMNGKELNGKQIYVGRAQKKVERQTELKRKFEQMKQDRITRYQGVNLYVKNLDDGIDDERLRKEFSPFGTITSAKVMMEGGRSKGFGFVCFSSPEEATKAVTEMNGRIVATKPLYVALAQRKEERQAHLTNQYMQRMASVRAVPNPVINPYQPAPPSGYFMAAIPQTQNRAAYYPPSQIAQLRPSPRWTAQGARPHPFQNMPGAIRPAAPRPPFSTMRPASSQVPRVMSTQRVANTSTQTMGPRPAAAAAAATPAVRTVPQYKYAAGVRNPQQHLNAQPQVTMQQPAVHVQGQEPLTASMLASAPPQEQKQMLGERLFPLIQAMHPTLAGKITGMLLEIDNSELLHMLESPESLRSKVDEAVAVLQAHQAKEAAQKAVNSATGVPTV
# [15] = target: T5, Polyadenylate-binding protein 1; assay: MLLE domain peptide-binding blockers, IC50 – biochemical, fluorescence polarization, FITC-PAM2 peptide, dose response (AID 602259); format: functional; details: read-out: IC50_Mean
smiles,measurement,setting,value
Cc1ccc(S(=O)(=O)N2CCN(C(=O)/C=C/c3ccco3)CC2)cc1,IC50,[1],10.2 µM (active)
O=C(CCCOc1ccc(Cl)cc1Cl)Nc1ccccc1C(=O)O,IC50,cells,5.66 µM (active)
same,CC50,[2],9.45 µM (active)
COc1ccccc1N1CCN(S(=O)(=O)Cc2ccccc2Cl)CC1,IC50,[3],> 64 µM (inactive)
CC1CCN(C(=O)CCN2C(=O)/C(=C/c3cccs3)SC2=S)CC1,EC50,[4],> 300 µM (not active)
same,CC50,Vero,17.3 µM (active)
same,EC50,[5],> 300 µM (not active)
Cc1cccc2sc(NC(=O)CN(C)S(=O)(=O)c3ccc(Br)s3)nc12,EC50,[6],12.2 µM (active)
same,EC50,[7],12.2 µM (active)
O=C1NC(=S)NC(=O)C1=Cc1ccc(OCC(=O)N2CCCC2)cc1,IC50,[1],9 µM (active)
CCOC(=O)C(C)Sc1ccc2nnc(-c3ccc(F)cc3)n2n1 (configuration not stated),IC50,[3],> 64 µM (inactive)
CC1(C)Cc2c(C#N)c(N3CCN(C(=O)c4ccco4)CC3)nc(Cc3ccccc3)c2CO1,EC50,[8],26 µM (active)
same,EC50,[9],23.3 µM (active)
same,EC50,[6],17.2 µM (active)
same,EC50,[7],11.8 µM (active)
Cc1nnc(SCC2=C(C(=O)O)N3C(=O)C(NC(=O)Cn4nc(C(F)F)cc4C)C3SC2)s1 (configuration not stated),IC50,[1],7.83 µM (active)
O=[N+]([O-])c1ccc(Cl)c(S(=O)(=O)Nc2cccc(-c3ccc(N4CCOCC4)nn3)c2)c1,IC50,cells,32.5 µM (active)
same,CC50,[2],37.3 µM (active)
Cc1cc(-c2ccc(C(C)C)c(S(=O)(=O)NCc3ccco3)c2)on1,CC50,Vero,6.78 µM (active)
CCCNC(=O)N1c2ccccc2Sc2ccccc21,CC50,Vero,> 25 µM (active)
Cc1c2cc[n+](CCN3CCCCC3)cc2c(C)c2c1[nH]c1ccc(O)cc12,GI50,SN12K1,1.5 µM (inactive)
same,GI50,P388,0.0111 µM (active)
same,GI50,P388/ADR,1.37 µM (inactive)
same,AC50,Cytochrome P450 2D6,5.01 µM (inconclusive)
O=C(Nc1ccc(CN2CCOCC2)cc1)c1ccc(-c2ccc(Cl)cc2Cl)o1,IC50,[3],50 µM (inactive)
same,AC50,[10],5.22 µM (active)
Cc1cc(N2CCCC2)nc2ccc(NC(S)=NCCCN3CCC(C)CC3)cc12,AC50,[11],2.27 µM (active)
same,EC50,[12],14.2 µM (active)
same,EC50,[13],2.03 µM (active)
same,CC50,Vero,> 25 µM (active)
CN1CCN(CC(O)(c2ccc(Cl)cc2)c2ccc(Cl)cc2)CC1,CC50,Vero,> 25 µM (active)
NCCc1cc(O)c(O)cc1O [OXIDOPAMINE HYDROCHLORIDE],IC50,[14],> 66 µM (inactive)
same,AC50,[11],4.12 µM (active)
same,IC50,[15],> 66 µM (inactive)
CNc1[nH]c(=O)[nH]c(=O)c1N=Nc1cc(Cl)ccc1Cl,IC50,[1],11.6 µM (active)
Cc1c(CCC(=O)O)c(=O)oc2cc(OCc3ccc(Br)cc3)ccc12,IC50,[1],7.23 µM (active)
CCC(=O)NC(=S)Nc1ccc(NC(=O)c2ccc([N+](=O)[O-])cc2)cc1,IC50,[3],> 64 µM (inactive)
Cc1ccc(-c2ccc(/C=N/O)o2)cc1[N+](=O)[O-],IC50,cells,33.5 µM (active)
same,CC50,[2],36.3 µM (active)
CN(Cc1cnc2nc(N)nc(N)c2n1)c1ccc(C(=O)NC(CCC(=O)O)C(=O)O)c2ccccc12 (configuration not stated),GI50,SN12K1,0.01 µM (active)
same,GI50,P388,< 0.01 µM (active)
same,GI50,P388/ADR,< 0.01 µM (active)
